Values quoted from earlier work, collected in patent US5215744A, “Methods for the treatment of tumors” (Boehringer Ingelheim GmbH, priority 1987, dated 1993).

What was measured:
[1] = system: antimitotic effect of interferon and its natural killer cell activating activity; settings: with interferon; cited from earlier work
[2] = system: human promyelocytic leukemic cell line; settings: cited from earlier work
[3] = system: syngeneic Wilms Tumor (nephroblastoma); settings: rat, in vivo; cited from earlier work
C1300 neuroblastoma = settings: mouse, in vivo; cited from earlier work
HM-Kim mammary carcinoma = settings: rat, in vivo; cited from earlier work
cAMP = settings: cited from earlier work
neoplastic cells = settings: cited from earlier work
[4] = system: interferon antitumor / growth inhibitory effect; settings: cited from earlier work
PDE = settings: cited from earlier work

OCCN(CCO)c1nc(N2CCCCC2)c2nc(N(CCO)CCO)ncc2n1 [mopidamole, 2,6-bis-(diethanolamino)-4-piperidino-pyrimido[5,4-d]pyrimidine]
potentiation of interferon antimitotic effect and NK cell activating activity [1]: potentiates the antimitotic effect of interferon and its natural killer cell activating activity | reverse transformation of malignant cells [2]: promotes a reverse transformation of the malignant cells to normal | spontaneous lung metastases [3]: diminish significantly spontaneous lung metastases | spontaneous lung metastases (C1300 neuroblastoma): diminish significantly spontaneous lung metastases | spontaneous lung metastases (HM-Kim mammary carcinoma): diminish significantly spontaneous lung metastases | cAMP levels (cAMP): increase cAMP levels | 3H-thymidine incorporation (neoplastic cells): inhibition of 3H-thymidine incorporation into neoplastic cells | mitotic rate (neoplastic cells): direct inhibition of the mitotic rate | synergism with interferon ([4]; Ambrus et al. 1983): no synergism was seen | synergism with α and γ interferon ([4]; Wolf et al.): no synergistic inhibitory effect | effect on antitumor effect of leukocyte and fibroblastic interferon ([4]; tissue culture): potentiates the antitumor effect of leukocyte and fibroblastic interferon in tissue culture | effect on growth inhibition by human fibroblastic β-interferon ([4]; with β-interferon): potentiates the growth inhibitory effect of human fibroblastic β-interferon | PDE induced decomposition of cAMP (PDE): inhibition of PDE induced decomposition of cAMP
